Results from patent US20180127700A1, “Cell Culture Substrate for Rapid Release and Re-Plating” (priority 2015, published 2018).

Test system: NIH/3T3 mouse embryonic fibroblast cells
Assay: Tissue module release/detachment from shape-memory pNIPAAm polymer microbeams upon thermally initiated swelling
Format: cell-based
Parameters: tissue module detachment after microbeam swelling (in words): dose or concentration left out as unconfirmed
Conditions: for effect of treatment on tissue module detachment (in words): all strains tested, pNIPAAm microbeams
Procedure: NIH/3T3 mouse embryonic fibroblast cells were cultured in 10% NCS growth medium containing 1% antibiotics (10,000 units/ml penicillin and 10,000 μg/ml streptomycin stock solution) at 37° C. in a humidified atmosphere of 5% CO2. To prepare tissue modules, trypsinized fibroblasts were seeded onto the fabricated shape-memory polymer arrays at a density of 500-750 cells/mm^2 and cultured at 37° C. until confluence (24-48 h). Studies of release from low cell density (100 cells/mm^2) were cultured for 24 h.
Rapid release of tissue modules was induced by thermally initiated swelling of the shape-memory polymer beams. 2 ml of cold PBS (4-10° C.) was introduced (1 ml at a time) into the seeded dish containing 2.5 ml of 37° C. medium resulting in cooling to about 27° C. Cell release was monitored via time-lapse image acquisition on a microscope for at least 70 s.
The mode of cell release from shape-memory polymer surfaces was examined by separately treating seeded samples with agents that modulate metabolism, contractility or adhesion.
To investigate the effect of surface strain on attached cells, the concentration of the network crosslinker (MBAm) in the prepolymer solution was varied from 1 to 4% before MIMIC processing. The one-dimensional width-wise strain in each microbeam was calculated from phase contrast micrographs as follows: […]
where ε is the Cauchy strain, Wcollapsed is the width of the polymer beam in the collapsed state and Wswollen is the width of the polymer beam in the swollen state. Cell detachment was calculated as the percent of cells released from the microbeams within 3 min after thermal stimulation.

| Structure (SMILES) | cell release after initiating shape change (in words) (2 mM DTSSP for 30 min prior to release, within 5 min of initiating shape change) | effect of treatment on tissue module detachment (in words) | tissue module detachment after microbeam swelling (in words) (Y-27632 for 30 min prior to release, large strains (ε>0.25)) |
| --- | --- | --- | --- |
| O=C(CCSSCCC(=O)ON1C(=O)CC(S(=O)(=O)O)C1=O)ON1C(=O)CC(S(=O)(=O)O)C1=O (stereo not shown) [DTSSP, 3,3′-dithiobissulfosuccinimidylpropionate] | significant cell release was not observed | prevented tissue module detachment | – |
| C[C@@H](N)[C@H]1CC[C@H](C(=O)Nc2ccncc2)CC1 [Y-27632] | – | prevented tissue module detachment | primarily remained attached |
